The record followed here is ChEMBL document CHEMBL5620365, “Synthesis and evaluation of piperazinotriazoles. Discovery of a potent and orally bioavailable neurokinin-3 receptor inhibitor” (Eur J Med Chem, 2023).

Structures are written as SMILES. Where only a bound is given, the exact number is not on record here.

Data set [1] can be described thus: in vivo. To be noted: Sprague-Dawley, rat, iv, 1 mg/kg.
Data set [2] can be described thus: in vivo. To be noted: Sprague-Dawley, rat, brain, po, 5 mg/kg.
Data set [3] is described as follows: in vitro. To be noted: rat, liver microsomes. For orientation: Liver microsomes are vesicles of endoplasmic reticulum, rich in cytochrome P450 enzymes.
The nature of data set [4]: in vivo. The settings on record: Sprague-Dawley, rat, po, 5 mg/kg.
A short description of data set [5]: in vivo. To be noted: Sprague-Dawley, rat, po, 5 mg/kg. This is another data set of the same source.
A short description of data set [6]: in vitro. To be noted: human, liver microsomes.
Data set [7] is described as follows: in vivo. To be noted: Sprague-Dawley, rat, iv, 1 mg/kg. The source holds these as a separate data set.
Data set [8] can be described thus: in vivo. To be noted: Sprague-Dawley, rat, iv, 1 mg/kg. The source holds these as a separate data set.
A short description of data set [9]: in vivo. The settings on record: Sprague-Dawley, rat, iv, 1 mg/kg. The source holds these as a separate data set.
The nature of data set [10]: in vivo. The settings on record: Sprague-Dawley, rat, liver, po, 5 mg/kg.
Data set [11] in a line: in vivo. To be noted: Sprague-Dawley, rat, iv, 1 mg/kg. The source holds these as a separate data set.
Data set [12] is described as follows: in vivo. To be noted: Sprague-Dawley, rat, po, 5 mg/kg. This is another data set of the same source.
The nature of data set [13]: in vivo. The settings on record: Sprague-Dawley, rat, brain, po, 5 mg/kg. The source holds these as a separate data set.
Data set [14] can be described thus: in vivo. The settings on record: Sprague-Dawley, rat, po, 5 mg/kg. The source holds these as a separate data set.

As for `Cc1nsc(-c2nnc3n2CCN(C(=O)c2ccc(F)cc2)[C@@H]3C)n1` [FEZOLINETANT], the half-life (usually the time in which the quantity being followed falls by half) at 24 h in “in vivo [1]” is 2.94 h; in the data set “in vivo [12]”, 3.72 h. In the data set “in vivo [2]”, this compound came in with a concentration at 10 h of 297 ng/g. Further, the CLint scaled (as a rule, the rate of metabolic loss divided by the concentration) at 0.25 h is < 6.8 mL/min/kg in “in vitro [3]” and < 13.5 mL/min/kg in the data set “in vitro [6]”. The Tmax (in general, the time at which the peak concentration occurs) at 24 h in the data set “in vivo [4]” came to 1.83 h. Further, the AUC(0-t) (usually exposure summed from dosing to a finite time, without extrapolation to infinity) at 24 h in “in vivo [5]” worked out at 31600 ng·h/mL; in “in vivo [9]”, 5590 ng·h/mL. The Vd (as a rule, the apparent volume that relates the amount in the body to the concentration in plasma or blood) at 24 h in “in vivo [7]” was determined as 0.751 L/kg. Also, in the data set “in vivo [8]”, the clearance (in general, the rate of elimination divided by the concentration) at 24 h was 2.93 mL/min/kg. Besides, the values for the concentration at 1 h in the data set “in vivo [10]” and in the data set “in vivo [13]” were 12100 ng/g and 1020 ng/g, respectively. The values for the maximum concentration (Cmax) at 24 h in “in vivo [11]” and in the data set “in vivo [14]” were 1770 ng/mL and 3630 ng/mL, respectively.
